In brackets after ≈: the same amount, converted by molar mass. Several values for one entry are separate records, joined by “and”; a condition that tells them apart may be missing. Equal entries are not always repeated.
Legend:
[1] = test system: VRSA 52 and E. coli ATCC25922; assay: ROS fluorescent probe assay (DCFH‐DA); assay type: cell-based; settings: DCFH‐DA 10 µM, 1 h
Experimental: In accordance with the experimental methods described in previous literature,^[ [42] ^] […] The DCFH‐DA probe (Sigma‐Aldrich, US) was then added at a final concentration of 10 µM, and the mixture was incubated for 30 min at 37 °C, protected from light. After incubation, the samples were centrifuged to remove residual DCFH‐DA. The stained bacterial solution was transferred to a 96‐well black plate and mixed with varying concentrations of drugs (vancomycin, MSI‐78, and Vm‐MSI). Polymyxin B was used as a positive control, while PBS buffer served as a negative control. The plates were incubated at 37 °C for 1 h, protected from light. Finally, fluorescence was recorded using a Tecan Infinite M1000 PRO microplate reader (Tecan, Switzerland) with an excitation wavelength of 488 nm and an emission wavelength of 525 nm.

E. coli CMCC44102 = assay: microbe, parasite or virus in culture; settings: Escherichia coli, CMCC44102, 18 h
S. aureus CMCC26003 [2] = assay: Bacterial killing kinetics; settings: 4 µM, sampled 0-180 min
S. aureus CMCC26003 [3] = assay: Antimicrobial resistance development assay; assay type: cell-based; settings: S. aureus CMCC26003 cultured at sub‐MIC
A. baumannii ATCC19606 = assay: microbe, parasite or virus in culture; settings: Acinetobacter baumannii, ATCC19606, 18 h
S. aureus 15772 = assay: microbe, parasite or virus in culture; settings: Staphylococcus aureus, 15772, 18 h
[4] = test system: biofilm‐resident bacteria, including VRSA, E. coli, and MDR P. aeruginosa; assay: Biofilm resident bacteria assay; settings: 1-8 µM, 24 h
VRSA 52 = assay: Mouse skin infection model; assay type: in vivo, BALB/c mice
E. faecalis ATCC29212 = assay: microbe, parasite or virus in culture; settings: Enterococcus faecalis, ATCC29212, 18 h
S. aureus CMCC26003 [5] = assay: Antimicrobial blockade experiment using D‐Ala‐D‐Ala; assay type: cell-based; settings: D‐Ala‐D‐Ala 0 to 128 µg mL^−1
Description: In accordance with the experimental methods described in previous literature,^[ [42] ^]

P. aeruginosa ATCC27853 = assay: microbe, parasite or virus in culture; settings: Pseudomonas aeruginosa, ATCC27853, 18 h
S. aureus ATCC29213 = assay: microbe, parasite or virus in culture; settings: Staphylococcus aureus, ATCC29213, 18 h
K. pneumoniae 9883 = assay: microbe, parasite or virus in culture; settings: Klebsiella pneumoniae, 9883, 18 h
C. perfringens ATCC13124 = assay: microbe, parasite or virus in culture; settings: Clostridium perfringens, ATCC13124, 18 h
VRSA 52 biofilms = settings: 8 µM, 4 h, SYTO9/PI CLSM
MDR K. pneumoniae 3 = assay: microbe, parasite or virus in culture; settings: Klebsiella pneumoniae, 18 h
[6] = test system: ompR, csgA, csgD, mlrA, and rcsB expression in E. coli ATCC25922; assay: qPCR analysis of biofilm‐related genes; settings: 8 µM, 48 h static; qPCR ΔΔCt
[7] = test system: S. aureus CMCC26003 persister cells; assay: Anti‐persister cells assay; settings: 4 µM, 48 h, after 20× MIC ciprofloxacin for 8 h

CN[C@H](CC(C)C)C(=O)N[C@H]1C(=O)N[C@@H](CC(N)=O)C(=O)N[C@H]2C(=O)N[C@H]3C(=O)N[C@H](C(=O)N[C@H](C(=O)O)c4cc(O)cc(O)c4-c4cc3ccc4O)[C@H](O)c3ccc(c(Cl)c3)Oc3cc2cc(c3O[C@@H]2O[C@H](CO)[C@@H](O)[C@H](O)[C@H]2O[C@H]2C[C@](C)(N)[C@H](O)[C@H](C)O2)Oc2ccc(cc2Cl)[C@H]1O [Vm, vancomycin]
intracellular ROS production [1]: did not induce ROS production
MIC (E. coli CMCC44102): > 67.3 µM
time to complete eradication of all viable bacteria (S. aureus CMCC26003 [2]): > 180 min
change of MIC over 20 generations (S. aureus CMCC26003 [3]): four‐fold increase
MIC (A. baumannii ATCC19606): > 67.3 µM and > 100 µg/mL
MIC (S. aureus 15772): > 67.3 µM and > 100 µg/mL
biofilm‐resident bactericidal effect [4]: no significant biofilm‐resident bactericidal effect
reduction in bacterial count within the wound (VRSA 52; topical 2 mg kg^−1 at 6, 24 and 48 h post‐infection, VRSA 52 1 × 10^8 CFU mL^−1, wound CFU after 3 days): ≈ 30%
pro‐inflammatory cytokines TNF‐α and IL‐6 at the infection site (VRSA 52; topical 2 mg kg^−1 ×3, ELISA of wound supernatant): didn't effectively decrease
skin wound healing (VRSA 52; topical 2 mg kg^−1 ×3, observed to day 12): remained unhealed
MIC (E. faecalis ATCC29212): > 67.3 µM and > 100 µg/mL
fold increase in the MIC value on exogenous addition of D‐Ala‐D‐Ala (S. aureus CMCC26003 [5]): > 25 fold
MIC (P. aeruginosa ATCC27853): > 67.3 µM and > 100 µg/mL
MIC (S. aureus ATCC29213): 3.16 µM and 4.69 µg/mL
MIC (K. pneumoniae 9883): > 67.3 µM and > 100 µg/mL
MIC (C. perfringens ATCC13124): 25.2 µM (≈ 36.6 µg/mL)
killing in the surface layer of the biofilm (dead cells) (VRSA 52 biofilms): 25%
MIC (MDR K. pneumoniae 3): > 67.3 µM
csgA expression relative to control [6]: 0.8
csgD expression relative to control [6]: 0.6
rcsB up‐regulation relative to control [6]: 1.5 fold
reduction in the number of persister cells [7]: one‐order reduction

Reference: article PMC12931196, “Vm–MSI: a Vancomycin–Antimicrobial Peptide Conjugate Combating Resistant Bacteria and Broadening the Antimicrobial Spectrum” (Advanced Science, 2025)
